We go through eleven compounds from patent US8481519B2 (LTS Lohmann Therapie-Systeme AG, priority 2005, dated 2013).

Test [1] deals with T1, human androgen receptor (hAR) (Homo sapiens, UniProt P10275).
T1 construct: expressed in transfected cells; host or cells: CV1 monkey kidney cells, which lack endogenous androgen receptor
T1 sequence (P10275 1-920): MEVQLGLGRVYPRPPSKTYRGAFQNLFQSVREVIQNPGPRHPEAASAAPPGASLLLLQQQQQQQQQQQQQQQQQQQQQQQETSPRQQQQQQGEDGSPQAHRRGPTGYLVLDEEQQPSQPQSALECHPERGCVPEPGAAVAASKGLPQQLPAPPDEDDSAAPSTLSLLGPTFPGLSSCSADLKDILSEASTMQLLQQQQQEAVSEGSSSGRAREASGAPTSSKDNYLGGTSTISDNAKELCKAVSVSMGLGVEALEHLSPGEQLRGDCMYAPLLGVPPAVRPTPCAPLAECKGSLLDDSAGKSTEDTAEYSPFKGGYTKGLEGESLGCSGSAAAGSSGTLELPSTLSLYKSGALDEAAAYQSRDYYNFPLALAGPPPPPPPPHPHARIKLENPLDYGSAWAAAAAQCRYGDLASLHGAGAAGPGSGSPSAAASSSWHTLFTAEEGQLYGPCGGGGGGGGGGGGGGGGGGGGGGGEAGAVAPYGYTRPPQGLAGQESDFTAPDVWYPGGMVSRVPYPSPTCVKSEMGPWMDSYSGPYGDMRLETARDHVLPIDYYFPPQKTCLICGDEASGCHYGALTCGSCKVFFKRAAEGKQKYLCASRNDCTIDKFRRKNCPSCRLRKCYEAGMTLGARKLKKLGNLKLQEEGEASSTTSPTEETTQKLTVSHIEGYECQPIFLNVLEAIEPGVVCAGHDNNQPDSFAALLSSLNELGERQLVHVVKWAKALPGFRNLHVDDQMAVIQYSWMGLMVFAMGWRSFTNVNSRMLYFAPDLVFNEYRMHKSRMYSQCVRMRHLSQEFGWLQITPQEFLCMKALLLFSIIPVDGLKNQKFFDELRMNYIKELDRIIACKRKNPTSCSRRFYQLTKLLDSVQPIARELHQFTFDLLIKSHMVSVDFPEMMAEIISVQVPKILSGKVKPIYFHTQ
As to the kind of experiment: androgen receptor-dependent MMTV-luc reporter gene assay (luciferase assay) in transfected CV1 cells. Format: cell-based. The settings on record: for antiandrogenic effect of atraric acid derivatives and structurally similar compounds: FIGS. 6 and 7, concentration not given (FIG. 6: 10^−6 M); for inactivation of androgen receptor-mediated transactivation: 1 μM concentration; for inhibition of androgen receptor-mediated transactivation: 10 μM concentration, FIG. 7. An excerpt:
The potentially antiandrogenic efficacy of the extracts obtained was examined with the androgen receptor-dependent MMTV-luc reporter gene assay, in the following designated as luciferase assay.
In that assay, the enzyme luciferase serves as a reporter gene. Luciferase is an oxidoreductase from the North American firefly Photinus pyralis, which […] the substrate luciferin in the presence of aerial oxygen, ATP and Mg^2+ ions, to oxyluciferin. The energy emitted in the process is emitted as light.
The reporter gene luciferase is located on the plasmid pMMTV-luc (MMTV=Mouse mammary tumour virus), on which is also located the androgen-responsive element (ARE). The plasmid pMMTV-luc is transfected, together with the androgen receptor expression vector, into fibroblasts of the monkey kidney. If an androgen is added thereto, this androgen will bind, in a complex with the androgen receptor, to the androgen-responsive element. This process then initiates the transcription of the following gene, namely that of the luciferase reporter gene. The amount of the expressed luciferase is directly proportional to the amount of light released when adding luciferin, and the amount of light can be quantified by measuring the emission at λ=562 nm. If apart from the androgen there is also an antiandrogenic substance or an antiandrogenic extract, the transactivation of the luciferase reporter gene by the androgen-responsive element is inhibited and later, when the substrate is added, a correspondingly smaller amount of light energy is released.
The extracts were then examined at two concentrations (300 μg/ml and 600 μg/ml) for their antiandrogenic bioactivity using the luciferase assay.
Monkey kidney cells, line CV1, lacking endogenous androgen receptor, were cultured in Dulbecco's modified Eagle's medium (DMEM), supplemented with 10% (v/v) fetal calf serum, penicillin (100 IU/ml) and streptomycin (100 IU/ml), at 37° C. and 5% CO2.
For the transfection experiments, the cells were seeded onto 6-well cell culture plates (Nunc, Roskilde, Denmark) with a density of 1.2×10^5 cells per well, and grown in DMEM medium supplemented with 10% (v/v) dextran-coated activated charcoal stripped serum. Six hours after seeding, the cells were transfected by using the Ca3(PO4)2 method. The human androgen receptor (hAR) expression vector (0.2 μg) was cotransfected with 1 μg of the reporter plasmid MMTV-luc and 0.2 μg of the cytomegalovirus (CMV)-driven β-galactosidase expression virus, as internal control for transfection efficiency. After 14 hours, the medium was replaced either without (white bars in FIGS. 1 to 3) or with the addition of methyltrienolone (R1881, 3×10^−10 M final concentration; black bars in FIGS. 1 to 3) together with the indicated extracts (FIG. 1), fractions of the methylene chloride extract (FIG. 2) or individual isolated compounds (FIG. 3). After an additional 48 hours, cells were harvested and assayed for luciferase and β-galactosidase activity.
Luciferase activity was determined by injecting luciferin and measuring light emission at 562 nm and expressed as relative light units (RLU) by using the values […] β-galactosidase activity for normalisation of the luciferase activity. All transfection assays shown were performed in duplicate and were repeated at least twice.
For determining antiandrogenic activity in the various extracts from the bark of P. africana, the extracts were used at a concentration of 300 μg/ml.
For determining the antiandrogenic activity in the fractions of the selective methylene chloride extracts, 2 μl of the respective fraction was used, corresponding to a final concentration of 30 μg/ml. Fractions 6 to F10 were additionally tested with 4 μl, corresponding to 60 μg/ml final concentration.

Test [2] has as its system human prostate carcinoma cells (cell line LNCaP). The experiment in a line: LNCaP cell growth assay. To be noted: FIG. 4; for growth of LNCaP cells: atraric acid 10 μM, OH—F 0.1 μM. Format: cell-based. On the procedure:
The growth of prostate cells and prostate cancer cells is originally dependent on androgens.
Human prostate carcinoma cells (cell line LNCaP) were cultured in RPMI-1640 medium that was supplemented with 10% (v/v) fetal calf serum, penicillin (100 IU/ml) and streptomycin (100 IU/ml), 2 mM glutamine and 1 mM sodium pyruvate.
For the cell growth assays, LNCaP cells were seeded onto a 24-well cell culture plate at a density of 5×10^3 cells per well and cultured in RPMI-1640 medium containing 5% fetal calf serum. […] Every second day the medium was replaced with fresh medium together with freshly added compounds. The cells were trypsinized and counted using a counting cell chamber on the indicated days.

Another test addresses T2, human ERα (Homo sapiens, UniProt P03372).
T2 construct: expressed in transfected cells; host or cells: CV1 cells
The experiment in a line: p2ERE-TATA-luc reporter gene assay in CV1 cells transfected with ERα. The test is classed as cell-based. To be noted: FIG. 9. On the procedure: (§1) After seven days, the cells were seeded in 6-well plates (Nunc, Roskilde, Denmark) at a density of 1.5×10^5 cells per well. After 24 hours, the cells were transfected according to the calcium phosphate method with 2 μg of the reporter gene-encoding expression plasmid, 0.2 μg of the ERα-encoding or ERβ-encoding expression plasmid and, for reasons of normalisation, 0.2 μg of the cytomegalovirus-derived β-galactosidase. […] After 48 hours, the cells were harvested and assayed for luciferase and β-galactosidase activity. All transfection assays were performed in duplicate and were repeated at least twice.
A general note: Reporter assays use an easily measured gene product as a stand-in for the process of interest.

The target in the next test is T3, human ERβ (Homo sapiens, UniProt Q92731).
T3 construct: expressed in transfected cells; host or cells: CV1 cells
T3 sequence (Q92731 whole entry): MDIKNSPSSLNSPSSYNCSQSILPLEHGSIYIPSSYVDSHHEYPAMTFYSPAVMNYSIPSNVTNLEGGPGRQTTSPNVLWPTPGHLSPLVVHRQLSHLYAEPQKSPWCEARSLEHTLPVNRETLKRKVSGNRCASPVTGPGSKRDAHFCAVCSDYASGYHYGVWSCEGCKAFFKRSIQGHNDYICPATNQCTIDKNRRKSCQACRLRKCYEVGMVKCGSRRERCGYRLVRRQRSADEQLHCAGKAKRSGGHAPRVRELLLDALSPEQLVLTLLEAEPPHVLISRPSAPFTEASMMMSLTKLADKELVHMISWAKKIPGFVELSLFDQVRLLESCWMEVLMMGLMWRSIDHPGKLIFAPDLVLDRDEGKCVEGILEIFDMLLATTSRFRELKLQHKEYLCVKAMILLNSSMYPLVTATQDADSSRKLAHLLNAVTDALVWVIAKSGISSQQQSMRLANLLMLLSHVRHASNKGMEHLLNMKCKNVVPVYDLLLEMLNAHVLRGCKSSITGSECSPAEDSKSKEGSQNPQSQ
As to the kind of experiment: p2ERE-TATA-luc reporter gene assay in CV1 cells transfected with ERβ. The settings on record: FIG. 8. The test is classed as cell-based. How it is done: as §1

Test [3] relates to pathologically altered androgen receptor. To be noted: background, prior work; cited from earlier work.
Where [4] appears, read: no estradiol present, 10 μM or 100 μM.

T2 sequence (P03372 whole entry): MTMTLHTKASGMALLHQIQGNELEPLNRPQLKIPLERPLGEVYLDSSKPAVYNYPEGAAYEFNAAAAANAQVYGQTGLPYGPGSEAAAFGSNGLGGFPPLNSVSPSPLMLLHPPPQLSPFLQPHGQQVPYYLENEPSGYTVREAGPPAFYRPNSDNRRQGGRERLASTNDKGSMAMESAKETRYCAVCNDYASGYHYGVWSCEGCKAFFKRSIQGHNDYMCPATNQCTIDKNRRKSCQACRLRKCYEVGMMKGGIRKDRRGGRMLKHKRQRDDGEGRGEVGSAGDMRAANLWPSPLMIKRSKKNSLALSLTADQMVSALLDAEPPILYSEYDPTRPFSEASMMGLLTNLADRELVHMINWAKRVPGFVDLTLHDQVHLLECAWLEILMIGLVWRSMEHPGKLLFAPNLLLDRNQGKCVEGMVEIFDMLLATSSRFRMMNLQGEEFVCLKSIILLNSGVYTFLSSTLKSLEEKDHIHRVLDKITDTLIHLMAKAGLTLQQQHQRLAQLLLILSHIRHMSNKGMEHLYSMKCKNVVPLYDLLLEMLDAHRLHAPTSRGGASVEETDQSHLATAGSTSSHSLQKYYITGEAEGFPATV

`Cc1cc(O)c(C)c(O)c1C(=O)OCCNS(=O)(=O)c1ccccc1` [A4, 2-[(phenylsulfonyl)amino]ethyl-2,4-dihydroxy-3,6-dimethylbenzoate]: in test [1], the “antiandrogenic effect of atraric acid derivatives and structurally similar compounds” value (from here on “antiandrogenic effect”) is reported as “no antiandrogenic effect”. On the same count and under the same terms, under `CC(C)=CCC/C(C)=C/COC(=O)c1cc(C)c(O)c(C)c1O` [A5, (2E)-3,7-dimethylocta-2,6-dien-1-yl-2,4-dihydroxy-3,5-dimethylbenzoate] stands “did not lead to an antiandrogenically active molecule”. As for `Cc1cc(C(=O)OC(C)C)c(O)c(C)c1O` [A6, isopropyl-2,4-dihydroxy-3,5-dimethylbenzoate], in test [1], the “inactivation of androgen receptor-mediated transactivation” value is listed as “still able to inactivate” and the “inhibition of androgen receptor-mediated transactivation” value was “nearly completely inhibiting”. As to `CC(C)(O)C(=O)Nc1ccc([N+](=O)[O-])c(C(F)(F)F)c1` [OH—F, hydroxyflutamide, reference compound], the “growth of LNCaP cells” value in test [2] was “did not lead to any reduction in growth”. In the case of `COC(=O)c1c(C)c(Br)c(O)c(Br)c1O` [R1, methyl-3,5-dibromo-2,4-dihydroxy-6-methylbenzoate], the “antiandrogenic effect” value in test [1] is given as “loss of anti androgenic activity”.

Regarding `COC(=O)c1ccc(O)c(C)c1O` [R4, methyl-2,4-dihydroxy-3-methylbenzoate], in test [1], the “inactivation of androgen receptor-mediated transactivation” value was “still able to inactivate” and the “inhibition of androgen receptor-mediated transactivation” value is listed as “nearly completely inhibiting”. On to `COC(=O)c1c(O)c(C)cc(C)c1O` [R5, methyl-2,6-dihydroxy-3,5-dimethylbenzoate], for which the “antiandrogenic effect” value in test [1] is reported as “loss of antiandrogenic activity”.

Regarding `Cc1cc(O)c(C)c(O)c1C(=O)O` [R6, 2,4-dihydroxy-3,6-dimethylbenzoic acid], the “antiandrogenic effect” value in test [1] is “abrogates the antiandrogenic activity”. With `COC(=O)c1c(C)cc(O)c(C)c1O` [atraric acid, methyl-2,4-dihydroxy-3,6-dimethylbenzoate], the “growth of LNCaP cells versus untreated cells” value in test [2] (10 μM, 8th day of treatment) was “clearly slower”. For the same compound, the “growth of LNCaP cells” value in test [2] was “reduced growth”. The “estrogen-responsive expression of the reporter gene (ERα agonism)” value on human ERα (setting [4]) is recorded as “activated in a dose-dependent manner”. For the same compound, the “hormone-mediated transactivation of ERα” value at human ERα (with estradiol) is given as “not affected”. Besides, on human ERβ (setting [4]), the “estrogen-responsive expression of the reporter gene (ERβ agonism)” value was “activated in a dose-dependent manner”. The “hormone-mediated transactivation of ERβ” value on human ERβ (with estradiol) is given as “not affected”. As to `CC(=O)[C@@]1(O)CC[C@H]2[C@@H]3C=C(Cl)C4=CC(=O)[C@@H]5C[C@@H]5[C@]4(C)[C@H]3CC[C@@]21C` [cyproterone], the “inclusions in cells expressing a pathologically altered androgen receptor” value in test [3] was “only a small number of inclusions”. Regarding `C[C@]12CC[C@H]3[C@@H](CCC4=CC(=O)CC[C@@]43C)[C@@H]1CC[C@@H]2O` [testosterone], the “inclusions in cells expressing a pathologically altered androgen receptor” value in test [3] is given as “characteristic inclusions in the cytoplasm”.
